Experiments:
Assay type in all cases: cell-based, human
[1] = system: ABCG2 expression in cancer cells (CK8/18+); experiment: Immunofluorescence assay of ABCG2 expression in patient-derived NSCLC cultures; conditions: 7 days
Procedure, shortened: (§1)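 Cancer and non-cancer populations are told apart by a CK8/18 antibody cocktail after paraformaldehyde fixation and BSA blocking, with secondary antibodies applied 2 h at RT. Cultures derive from dissociated NSCLC resections, seeded 1000 cells/well. Compound exposure lasts 7 days, from 72 h post-seeding.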

[2] = system: ABCC1 expression in cancer cells (CK8/18+); experiment: Immunofluorescence assay of ABCC1 expression in patient-derived NSCLC cultures; conditions: 7 days
Procedure, shortened: as §1

[3] = system: ABCB1 expression in cancer cells (CK8/18+); experiment: Immunofluorescence assay of ABCB1 expression in patient-derived NSCLC cultures; conditions: 7 days
Procedure, shortened: as §1

[4] = system: ABCB1 expression in MRC-5 cells; experiment: Immunofluorescence assay of MDR marker ABCB1 expression; conditions: five concentrations, 24 h
Procedure, shortened: (§2)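 Compounds added 48 h after seeding, then 24 h exposure. Cells fixed in 4% paraformaldehyde, BSA-blocked, co-stained for ABCB1 with CK8/18 to separate cancer from stromal cells; 4x automated imaging. Cytotoxicity from cell-count scoring; ABCB1 expression from multi-wavelength cell scoring.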

[5] = system: ABCB1 expression in NCI-H460/R cells; experiment: as above; conditions: five concentrations, 24 h
Procedure, shortened: as §2

[6] = system: ABCB1 expression in NCI-H460 cells; experiment: as above; conditions: five concentrations, 24 h
Procedure, shortened: as §2

NCI-H460 cells = experiment: Cytotoxicity by immunofluorescence cell scoring (cell counts), NSCLC cell line; conditions: Homo sapiens, NCI-H460, 24 h, 24 h treatment
Procedure, shortened: as §2

[7] = system: Non-cancer cells (CK8/18-) of patient-derived NSCLC cultures; experiment: Cytotoxicity in patient-derived NSCLC cultures, non-cancer cells; conditions: Homo sapiens, 168 h, 7 days treatment
Procedure, shortened: as §1

[8] = system: Cancer cells (CK8/18+) of patient-derived NSCLC cultures; experiment: Cytotoxicity in patient-derived NSCLC cultures, cancer cells; conditions: Homo sapiens, 168 h, 7 days treatment
Procedure, shortened: as §1

MRC-5 cells = experiment: Cytotoxicity by immunofluorescence cell scoring (cell counts), normal fibroblasts; conditions: Homo sapiens, 24 h treatment
Procedure, shortened: as §2

[9] = culture TR58, cancer cells (CK8/18+)
[10] = culture TR64, cancer cells (CK8/18+)
[11] = culture TR65, cancer cells (CK8/18+)
[12] = culture TR84, cancer cells (CK8/18+)
[13] = culture TR87, cancer cells (CK8/18+)
[14] = MRC-5 (co-culture with NCI-H460)
[15] = MRC-5 (co-culture with NCI-H460/R)
[16] = NCI-H460/R (co-culture with MRC-5)
[17] = NCI-H460 (co-culture with MRC-5)
[18] = culture TR58, non-cancer cells (CK8/18-)
[19] = culture TR64, non-cancer cells (CK8/18-)
[20] = culture TR65, non-cancer cells (CK8/18-)
[21] = culture TR84, non-cancer cells (CK8/18-)
[22] = culture TR87, non-cancer cells (CK8/18-)
[23] = MRC5, 24 h, MRC-5 (co-culture with NCI-H460)

In the case of `CC(=O)O[C@@]12CO[C@@H]1C[C@H](O)[C@@]1(C)C(=O)[C@H](O)C3=C(C)[C@@H](OC(=O)[C@H](O)[C@@H](NC(=O)OC(C)(C)C)c4ccccc4)C[C@@](O)([C@@H](OC(=O)c4ccccc4)[C@H]21)C3(C)C` [Docetaxel, docetaxel], the ABCG2 expression [1, 9] is reported as “increase (An increase in ABCB1, ABCC1, or ABCG2 expression of at least 20% at a minimum of one concentration is shown in the table.)”, the ABCG2 expression [1, 10] is reported as “increase (An increase in ABCB1, ABCC1, or ABCG2 expression of at least 20% at a minimum of one concentration is shown in the table.)” and the ABCG2 expression [1, 11] is reported as “no change”. For the same molecule, the ABCG2 expression [1, 12] was “increase (An increase in ABCB1, ABCC1, or ABCG2 expression of at least 20% at a minimum of one concentration is shown in the table.)”, the ABCG2 expression [1, 13] was “increase (An increase in ABCB1, ABCC1, or ABCG2 expression of at least 20% at a minimum of one concentration is shown in the table.)” and the ABCC1 expression [2, 9] was “no change”. The ABCC1 expression [2, 10] was “increase (An increase in ABCB1, ABCC1, or ABCG2 expression of at least 20% at a minimum of one concentration is shown in the table.)”, the ABCC1 expression [2, 11] was “increase (An increase in ABCB1, ABCC1, or ABCG2 expression of at least 20% at a minimum of one concentration is shown in the table.)” and the ABCC1 expression [2, 12] was “increase (An increase in ABCB1, ABCC1, or ABCG2 expression of at least 20% at a minimum of one concentration is shown in the table.)”. For the same molecule, the ABCC1 expression [2, 13] was “increase (An increase in ABCB1, ABCC1, or ABCG2 expression of at least 20% at a minimum of one concentration is shown in the table.)”, the ABCB1 Expression [3, 9] was “no change” and the ABCB1 Expression [3, 10] was “increase (An increase in ABCB1, ABCC1, or ABCG2 expression of at least 20% at a minimum of one concentration is shown in the table.)”. The ABCB1 Expression [3, 11] was “no change”, the ABCB1 Expression [3, 12] was “increase (An increase in ABCB1, ABCC1, or ABCG2 expression of at least 20% at a minimum of one concentration is shown in the table.)” and the ABCB1 Expression [3, 13] was “increase (An increase in ABCB1, ABCC1, or ABCG2 expression of at least 20% at a minimum of one concentration is shown in the table.)”. For the same molecule, the “ABCB1 Expression” value [4, 14] was “no change”, the “ABCB1 Expression” value [4, 15] was “no change” and the “ABCB1 Expression” value ([4]; MRC-5 monoculture) was “no change”. For the same molecule, the “ABCB1 Expression” value [5, 16] was “no change”, the “ABCB1 Expression” value ([5]; NCI-H460/R monoculture) was “no change” and the “ABCB1 Expression” value [6, 17] was “increase (An increase in ABCB1 expression of at least 20% at a minimum of one concentration is shown in the table.)”. For the same molecule, the “ABCB1 Expression” value ([6]; NCI-H460 monoculture) was “increase (An increase in ABCB1 expression of at least 20% at a minimum of one concentration is shown in the table.)”, the IC50 (NCI-H460 cells; [17]) was 0.642 µM and the IC50 (NCI-H460 cells; NCI-H460 monoculture) was 0.554 µM. For the same molecule, the IC50 [7, 18] was 1.59 µM, the IC50 [7, 19] was 2.73 µM and the IC50 [7, 20] was 0.461 µM. For the same molecule, the IC50 [7, 21] was 0.182 µM, the IC50 [7, 22] was 3.05 µM and the IC50 [8, 9] was 1.31 µM. The IC50 [8, 10] was 1.56 µM, the IC50 [8, 11] was > 5 µM and the IC50 [8, 12] was 1.85 µM. The IC50 [8, 13] was > 5 µM, the IC50 (MRC-5 cells; [23]) was > 5 µM and the IC50 (MRC-5 cells; MRC5, 24 h, MRC-5 monoculture) was > 5 µM. The IC50 (MRC-5 cells; MRC5, MRC-5 (co-culture with NCI-H460/R)) was > 5 µM.
For `COc1cc([C@@H]2c3cc4c(cc3[C@@H](O[C@@H]3O[C@@H]5CO[C@@H](C)O[C@H]5[C@H](O)[C@H]3O)[C@H]3COC(=O)[C@H]23)OCO4)cc(OC)c1O` [Etoposide, etoposide], the ABCG2 expression [1, 9] was “no change”, the ABCG2 expression [1, 10] was “increase (An increase in ABCB1, ABCC1, or ABCG2 expression of at least 20% at a minimum of one concentration is shown in the table.)” and the ABCG2 expression [1, 11] was “increase (An increase in ABCB1, ABCC1, or ABCG2 expression of at least 20% at a minimum of one concentration is shown in the table.)”. For the same molecule, the ABCG2 expression [1, 12] was “increase (An increase in ABCB1, ABCC1, or ABCG2 expression of at least 20% at a minimum of one concentration is shown in the table.)”, the ABCG2 expression [1, 13] was “increase (An increase in ABCB1, ABCC1, or ABCG2 expression of at least 20% at a minimum of one concentration is shown in the table.)” and the ABCC1 expression [2, 9] was “no change”. For the same molecule, the ABCC1 expression [2, 10] was “increase (An increase in ABCB1, ABCC1, or ABCG2 expression of at least 20% at a minimum of one concentration is shown in the table.)”, the ABCC1 expression [2, 11] was “increase (An increase in ABCB1, ABCC1, or ABCG2 expression of at least 20% at a minimum of one concentration is shown in the table.)” and the ABCC1 expression [2, 12] was “increase (An increase in ABCB1, ABCC1, or ABCG2 expression of at least 20% at a minimum of one concentration is shown in the table.)”. For the same molecule, the ABCC1 expression [2, 13] was “increase (An increase in ABCB1, ABCC1, or ABCG2 expression of at least 20% at a minimum of one concentration is shown in the table.)”, the ABCB1 Expression [3, 9] was “no change” and the ABCB1 Expression [3, 10] was “increase (An increase in ABCB1, ABCC1, or ABCG2 expression of at least 20% at a minimum of one concentration is shown in the table.)”. For the same molecule, the ABCB1 Expression [3, 11] was “increase (An increase in ABCB1, ABCC1, or ABCG2 expression of at least 20% at a minimum of one concentration is shown in the table.)”, the ABCB1 Expression [3, 12] was “increase (An increase in ABCB1, ABCC1, or ABCG2 expression of at least 20% at a minimum of one concentration is shown in the table.)” and the ABCB1 Expression [3, 13] was “increase (An increase in ABCB1, ABCC1, or ABCG2 expression of at least 20% at a minimum of one concentration is shown in the table.)”. For the same molecule, the “ABCB1 Expression” value [4, 14] was “no change”, the “ABCB1 Expression” value [4, 15] was “no change” and the “ABCB1 Expression” value ([4]; MRC-5 monoculture) was “no change”. For the same molecule, the “ABCB1 Expression” value [5, 16] was “no change”, the “ABCB1 Expression” value ([5]; NCI-H460/R monoculture) was “no change” and the “ABCB1 Expression” value [6, 17] was “increase (An increase in ABCB1 expression of at least 20% at a minimum of one concentration is shown in the table.)”. For the same molecule, the “ABCB1 Expression” value ([6]; NCI-H460 monoculture) was “increase (An increase in ABCB1 expression of at least 20% at a minimum of one concentration is shown in the table.)”, the IC50 (NCI-H460 cells; [17]) was 6.07 µM and the IC50 (NCI-H460 cells; NCI-H460 monoculture) was 4.81 µM. The IC50 [7, 18] was 6.49 µM, the IC50 [7, 19] was 18.1 µM and the IC50 [7, 20] was 2.08 µM. For the same molecule, the IC50 [7, 21] was 1.01 µM, the IC50 [7, 22] was 10.2 µM and the IC50 [8, 9] was 7.13 µM. The IC50 [8, 10] was 11.9 µM, the IC50 [8, 11] was 25.4 µM and the IC50 [8, 12] was 2.98 µM. For the same molecule, the IC50 [8, 13] was 13 µM, the IC50 (MRC-5 cells; [23]) was > 30 µM and the IC50 (MRC-5 cells; MRC5, 24 h, MRC-5 (co-culture with NCI-H460/R)) was > 30 µM. The IC50 (MRC-5 cells; MRC5, 24 h, MRC-5 monoculture) was > 30 µM.

From article PMC10743086, “Immunofluorescence-Based Assay for High-Throughput Analysis of Multidrug Resistance Markers in Non-Small Cell Lung Carcinoma Patient-Derived Cells” (Diagnostics, 2023)
